A word on the melting point: it is the temperature of the solid-liquid transition.

Here are results for 14 compounds from patent US20090123563A1, “Pharmaceutical Preparations Comprising Insulin, Zinc Ions and Zinc-Binding Ligand” (NOVO NORDISK A/S, priority 2005, published 2009).

Consider `O=C1NC(=O)/C(=C/c2c(Cl)cccc2Cl)S1`, for which the melting point is 152 to 154 °C.

`COc1cccc(OC)c1/C=C1\SC(=O)NC1=O` had a melting point of 241 to 242 °C.

`COc1cc(/C=C2\SC(=O)NC2=O)cc(I)c1O` registered a melting point of 256 °C.

Take `CN(C)c1ccc(/C=C/C=C2\SC(=O)NC2=O)cc1`: the melting point was 259 to 263 °C.

For `O=C1NC(=O)/C(=C/C(Cl)=C/c2ccccc2)S1`, the melting point fell in the range of 251 to 254 °C.

In turn, `O=C1NC(=O)/C(=C/c2cc3ccccc3[nH]c2=O)S1` registered a melting point of 338 to 347 °C.

As for `CC(/C=C1\SC(=O)NC1=O)=C\c1ccccc1`, the melting point is 203 to 210 °C.

`c1cc(COc2ccc3ccccc3c2)cc(-c2nnn[nH]2)c1` showed a melting point of 200 to 202 °C.

`O=C1NC(=O)/C(=C/c2ccc3cc(O)ccc3c2)S1`: the melting point lay within 310 to 314 °C.

The compound `COc1cc(O)cc(OC)c1/C=C1\SC(=O)NC1=O` registered a melting point of 331 to 333 °C.

Compound `O=C1NC(=O)/C(=C/c2cc3ccccc3o2)S1` had a melting point of 265 to 266 °C.

Consider `Cc1cccc(C)c1/C=C1\SC(=O)NC1=O`, for which the melting point lay in the range of 104 to 105 °C.

`O=C1NC(=O)/C(=C/c2c[nH]c3ccc([N+](=O)[O-])cc23)S1`: the melting point was in the range of 330 to 333 °C.

Compound `COc1cc(OCc2c(F)cccc2[N+](=O)[O-])cc(OC)c1/C=C1\SC(=O)NC1=O` gave a melting point of 255 to 256 °C.
